Measured values published in ChEMBL document CHEMBL1201862, “PubChem BioAssay data set” (2004).
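Where inhibition never reached the appropriate level, the endpoint shown equals the highest concentration tested. Otherwise, values were interpolated linearly from a five-concentration, 48-hour dose response in 96-well plates. GI50 = concentration required for 50% inhibition of growth.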 The source made the active and inactive calls. No stated cut-off is given here; in the data, active = GI50 up to about 1.1 µM and inactive = higher.

Columns and labels:
Experiment in all cases: NCI tumour cell line growth inhibition, 48 h
[1] = tested on: UACC-257
[2] = tested on: UO-31
[3] = tested on: SNB-78
[4] = tested on: CCRF-CEM
[5] = tested on: HCT-15
[6] = tested on: UACC-62
[7] = tested on: K562
[8] = tested on: SF-268
[9] = tested on: COLO 205
[10] = tested on: 786-0
[11] = tested on: SF-539
[12] = tested on: ACHN
[13] = tested on: KM12
[14] = tested on: OVCAR-3
[15] = tested on: DMS-273
[16] = tested on: SNB-75
[17] = tested on: KM-20L2
[18] = tested on: OVCAR-8
[19] = tested on: LOX IMVI
[20] = tested on: Malme-3M
[21] = tested on: NCI-H226
[22] = tested on: SK-MEL-28
[23] = tested on: NCI-H23
[24] = tested on: NCI-H460
[25] = tested on: HCT-116
[26] = tested on: HOP-62
[27] = tested on: SW-620
[28] = tested on: TK-10
[29] = tested on: M14
[30] = tested on: IGROV-1
[31] = tested on: RXF 393
[32] = tested on: LXFL 529
[33] = tested on: NCI-H522
[34] = tested on: SN12C
[35] = tested on: SR
[36] = tested on: SK-OV-3
[37] = tested on: U-251
[38] = tested on: EKVX
[39] = tested on: RPMI-8226
[40] = tested on: MOLT-4
[41] = tested on: SNB-19
[42] = tested on: M19-MEL
[43] = tested on: HCC 2998
[44] = tested on: A549
[45] = tested on: DLD-1
[46] = tested on: SF-295
[47] = tested on: HL-60
[48] = tested on: HT-29
[49] = tested on: SK-MEL-2
[50] = tested on: SK-MEL-5
[51] = tested on: OVCAR-5
[52] = tested on: CAKI-1
[53] = tested on: T47D
[54] = tested on: MDA-N
[55] = tested on: MDA-MB-231
[56] = tested on: HOP-92
[57] = tested on: BT-549
[58] = tested on: Hs-578T
[59] = tested on: DU-145
[60] = tested on: NCI/ADR-RES
[61] = tested on: MCF7
[62] = tested on: OVCAR-4
[63] = tested on: A498
[64] = tested on: PC-3
[65] = tested on: MDA-MB-435

In the case of COc1ccccc1-c1cc(=O)c2ccccc2[nH]1, the GI50 [1] is reported as > 100 µM (inactive), the GI50 [2] is reported as 60.7 µM (inactive) and the GI50 [3] is reported as > 100 µM (inactive). The GI50 [4] was 66.7 µM (inactive), the GI50 [5] was 55.1 µM and the GI50 [6] was 41.7 µM (inactive). The GI50 [7] was 36.1 µM (inactive), the GI50 [8] was > 100 µM (inactive) and the GI50 [9] was > 100 µM (inactive). For the same compound, the GI50 [10] was > 100 µM (inactive), the GI50 [11] was > 100 µM (inactive) and the GI50 [12] was > 100 µM (inactive). For the same compound, the GI50 [13] was 63.7 µM (inactive), the GI50 [14] was > 100 µM (inactive) and the GI50 [15] was 57.9 µM (inactive). The GI50 [16] was 55.7 µM (inactive), the GI50 [17] was > 100 µM (inactive) and the GI50 [18] was > 100 µM (inactive). For the same compound, the GI50 [19] was > 100 µM (inactive), the GI50 [20] was 49 µM (inactive) and the GI50 [21] was 70.1 µM (inactive). For the same compound, the GI50 [22] was > 100 µM (inactive), the GI50 [23] was > 100 µM (inactive) and the GI50 [24] was > 100 µM (inactive). For the same compound, the GI50 [25] was > 100 µM (inactive), the GI50 [26] was > 100 µM (inactive) and the GI50 [27] was 40.4 µM (inactive). For the same compound, the GI50 [28] was > 100 µM (inactive), the GI50 [29] was 99.8 µM (inactive) and the GI50 [30] was 99.8 µM (inactive). For the same compound, the GI50 [31] was > 100 µM (inactive), the GI50 [32] was > 100 µM (inactive) and the GI50 [33] was 33.9 µM (inactive). The GI50 [34] was > 100 µM (inactive), the GI50 [35] was 55.1 µM (inactive) and the GI50 [36] was 73.6 µM (inactive). For the same compound, the GI50 [37] was > 100 µM (inactive), the GI50 [38] was > 100 µM (inactive) and the GI50 [39] was 70 µM (inactive). For the same compound, the GI50 [40] was 52 µM (inactive), the GI50 [41] was > 100 µM (inactive) and the GI50 [42] was > 100 µM (inactive). The GI50 [43] was 72.6 µM (inactive), the GI50 [44] was 54.3 µM (inactive) and the GI50 [45] was > 100 µM (inactive). The GI50 [46] was 40 µM (inactive) and the GI50 [47] was 43.8 µM (inactive).

With C=CCn1c(=S)sc2c(C(=O)OCC)c3c(C)cc(C)cn3c2c1=O the GI50 [1] was > 100 µM (inactive), the GI50 [2] was > 100 µM (inactive) and the GI50 [3] was > 100 µM (inactive). For the same compound, the GI50 [4] was > 100 µM (inactive), the GI50 [5] was > 100 µM and the GI50 [6] was > 100 µM (inactive). For the same compound, the GI50 [7] was > 100 µM (inactive), the GI50 [8] was 67.5 µM (inactive) and the GI50 [9] was > 100 µM (inactive). The GI50 [10] was 61.1 µM (inactive), the GI50 [11] was 80.5 µM (inactive) and the GI50 [12] was > 100 µM (inactive). The GI50 [14] was > 100 µM (inactive), the GI50 [15] was > 100 µM (inactive) and the GI50 [16] was 45.4 µM (inactive). For the same compound, the GI50 [17] was > 100 µM (inactive), the GI50 [18] was > 100 µM (inactive) and the GI50 [19] was > 100 µM (inactive). For the same compound, the GI50 [20] was > 100 µM (inactive), the GI50 [21] was > 100 µM (inactive) and the GI50 [22] was > 100 µM (inactive). For the same compound, the GI50 [23] was > 100 µM (inactive), the GI50 [24] was > 100 µM (inactive) and the GI50 [25] was > 100 µM (inactive). The GI50 [26] was > 100 µM (inactive), the GI50 [27] was > 100 µM (inactive) and the GI50 [28] was > 100 µM (inactive). The GI50 [29] was > 100 µM (inactive), the GI50 [30] was > 100 µM (inactive) and the GI50 [31] was > 100 µM (inactive). For the same compound, the GI50 [32] was > 100 µM (inactive), the GI50 [33] was 65.6 µM (inactive) and the GI50 [34] was > 100 µM (inactive). For the same compound, the GI50 [35] was > 100 µM (inactive), the GI50 [36] was 90.8 µM (inactive) and the GI50 [48] was > 100 µM (inactive). For the same compound, the GI50 [37] was 75.9 µM (inactive), the GI50 [38] was > 100 µM (inactive) and the GI50 [39] was > 100 µM (inactive). The GI50 [40] was > 100 µM (inactive), the GI50 [41] was > 100 µM (inactive) and the GI50 [49] was > 100 µM (inactive). For the same compound, the GI50 [50] was > 100 µM (inactive), the GI50 [42] was > 100 µM (inactive) and the GI50 [43] was > 100 µM (inactive). The GI50 [44] was > 100 µM (inactive), the GI50 [45] was > 100 µM (inactive) and the GI50 [51] was > 100 µM (inactive). The GI50 [46] was 86.7 µM (inactive), the GI50 [47] was > 100 µM (inactive) and the GI50 [52] was > 100 µM (inactive).

CNC(=O)N(CCC#N)CCN(C(=O)N(C)C)c1ccccc1 was tested, and the GI50 [1] was > 100 µM (inactive), the GI50 [2] was > 100 µM (inactive) and the GI50 [4] was > 100 µM (inactive). The GI50 [5] was > 100 µM, the GI50 [6] was > 100 µM (inactive) and the GI50 [7] was > 100 µM (inactive). The GI50 [8] was > 100 µM (inactive), the GI50 [9] was > 100 µM (inactive) and the GI50 [10] was > 100 µM (inactive). The GI50 [11] was > 100 µM (inactive), the GI50 [12] was > 100 µM (inactive) and the GI50 [13] was > 100 µM (inactive). The GI50 [53] was > 100 µM (inactive), the GI50 [14] was > 100 µM (inactive) and the GI50 [54] was > 100 µM (inactive). For the same compound, the GI50 [55] was > 100 µM (inactive), the GI50 [16] was > 100 µM (inactive) and the GI50 [56] was > 100 µM (inactive). The GI50 [18] was > 100 µM (inactive), the GI50 [19] was > 100 µM (inactive) and the GI50 [20] was > 100 µM (inactive). For the same compound, the GI50 [57] was > 100 µM (inactive), the GI50 [21] was > 100 µM (inactive) and the GI50 [22] was > 100 µM (inactive). The GI50 [23] was > 100 µM (inactive), the GI50 [58] was > 100 µM (inactive) and the GI50 [24] was > 100 µM (inactive). For the same compound, the GI50 [25] was > 100 µM (inactive), the GI50 [26] was > 100 µM (inactive) and the GI50 [27] was > 100 µM (inactive). The GI50 [28] was > 100 µM (inactive), the GI50 [29] was > 100 µM (inactive) and the GI50 [30] was > 100 µM (inactive). The GI50 [31] was > 100 µM (inactive), the GI50 [59] was > 100 µM (inactive) and the GI50 [33] was > 100 µM (inactive). For the same compound, the GI50 [60] was > 100 µM (inactive), the GI50 [61] was > 100 µM (inactive) and the GI50 [34] was > 100 µM (inactive). The GI50 [35] was > 100 µM (inactive), the GI50 [62] was > 100 µM (inactive) and the GI50 [36] was > 100 µM (inactive). For the same compound, the GI50 [48] was > 100 µM (inactive), the GI50 [63] was > 100 µM (inactive) and the GI50 [37] was > 100 µM (inactive). The GI50 [38] was > 100 µM (inactive), the GI50 [39] was > 100 µM (inactive) and the GI50 [40] was > 100 µM (inactive). The GI50 [41] was > 100 µM (inactive), the GI50 [49] was > 100 µM (inactive) and the GI50 [50] was > 100 µM (inactive). For the same compound, the GI50 [43] was > 100 µM (inactive), the GI50 [44] was > 100 µM (inactive) and the GI50 [51] was > 100 µM (inactive). For the same compound, the GI50 [64] was > 100 µM (inactive), the GI50 [65] was > 100 µM (inactive) and the GI50 [46] was > 100 µM (inactive). For the same compound, the GI50 [47] was > 100 µM (inactive) and the GI50 [52] was > 100 µM (inactive).
